Several values for one entry are separate records, joined by “and”; a condition that tells them apart may be missing. Equal values may be shown once.
Legend:
[1] = tested on: fruits of cherry tomato
Procedure: (§1) An agent for increasing a sugar content in a fruit (containing Sorbon T-20 as a spreader/sticker at a final concentration of 200 μL/L) diluted with water to have a potassium hydrogen carbonate concentration of 10 g/L was prepared. The masses of fruits of apple and cherry tomato purchased on the market were measured. Then, the prepared agent for increasing a sugar content in a fruit was applied by spraying to the fruits. The fruits were allowed to stand still in an air-conditioned greenhouse, and the masses of the apples and cherry tomatoes were measured on the date of application (date of application: Nov. 30, 2011; date of test: Dec. 5, 2011). In addition, as a control, the masses of untreated apples and cherry tomatoes were measured in the same manner.
(§2) The estimated transpiration ratio (%) was calculated by “the estimated amount (g) of transpiration/the mass (g) before application×100.”
(§3) The transpiration ratio was calculated by “the estimated transpiration ratio of the target sample (treated by application of potassium hydrogen carbonate or untreated)/the estimated transpiration ratio of the untreated sample.”

[2] = tested on: fruits of apple
Procedure: as §1, §2, §3

How did the “Transpiration ratio (treated/untreated)” value ([1]; 10 g/L) turn out when `O=C([O-])O.[K+]` [Potassium hydrogen carbonate, potassium hydrogen carbonate] was run?
Its value is 1.93.

And the “Mass (g) on date of test” value ([1]; 10 g/L, Dec. 5)?
Its value is 193.30 g.

And the “Estimated amount (g) of transpiration” value ([1]; 10 g/L, Nov. 30 to Dec. 5)?
The value was 21.75 g.

And the “Estimated transpiration ratio (%)” value ([1]; 10 g/L, Nov. 30 to Dec. 5)?
The value was 10.12%.

And the “Mass (g) before application” value ([1]; Nov. 30)?
The value was 215.05 g.

What about the “Transpiration ratio (treated/untreated)” value ([2]; 10 g/L) of the same compound?
The value was 1.65.

What about the “Mass (g) on date of test” value ([2]; 10 g/L, Dec. 5) of the same compound?
Its value is 263.69 g and 274.65 g.

And the “Estimated amount (g) of transpiration” value ([2]; 10 g/L, Nov. 30 to Dec. 5)?
The value was 9.15 g and 11.66 g.

What about the “Estimated transpiration ratio (%)” value ([2]; 10 g/L, Nov. 30 to Dec. 5) of the same compound?
Its value is 3.35% and 3.72%.

What about the “Estimated transpiration ratio (average) (%)” value ([2]; 10 g/L, average of two apples) of the same compound?
Its value is 3.54%.

What about the “Mass (g) before application” value ([2]; Nov. 30) of the same compound?
The value was 272.84 g and 286.31 g.
